Values joined by “and” are separate entries in the source; they are usually repeats but may differ in a detail not shown here. Identical values can stand only once.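 The compound was tested at five concentrations on cells cultured in 96-well plates, with a 48-hour exposure period. At the GI50, growth is halved. TGI: total growth inhibition.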
Legend:
Assay in all cases: NCI tumour cell line growth inhibition, 48 h
DMS 114 small cell lung = system: DMS 114 small cell lung
DMS 273 small cell lung = system: DMS 273 small cell lung
HOP-18 NSCLC = system: HOP-18 NSCLC
KM20L2 colon = system: KM20L2 colon
M19-MEL melanoma = system: M19-MEL melanoma
P388 leukemia = system: P388 leukemia
SN12K1 renal = system: SN12K1 renal
SNB-78 CNS = system: SNB-78 CNS
XF 498 CNS = system: XF 498 CNS
MDA-N = system: MDA-N
LXFL 529 NSCLC = system: LXFL 529 NSCLC

`Cc1c2cc[n+](C)cc2c(COC2OC(CO)C(O)C2O)c2c3ccccc3n(C)c12` (stereo not drawn) was tested, and the TGI (DMS 114 small cell lung) was > 100000 nM, the TGI (DMS 273 small cell lung) was > 100000 nM and the TGI (HOP-18 NSCLC) was > 100000 nM. The TGI (KM20L2 colon) was > 100000 nM, the TGI (M19-MEL melanoma) was > 100000 nM and the TGI (P388 leukemia) was > 100000 nM. For the same compound, the TGI (SN12K1 renal) was > 100000 nM, the TGI (SNB-78 CNS) was > 100000 nM and the TGI (XF 498 CNS) was > 97300 nM.

In the case of `NC(=O)c1cc2ccccc2c(N=Nc2ccccc2)c1O`, the TGI (MDA-N) is reported as > 100000 nM.

For `CC(=O)OC1CC2(O)C(CCC3(C)C(c4ccc(=O)oc4)CCC32O)C2(C)CCC(O)C=C12` (stereo not drawn), the TGI (DMS 114 small cell lung) was 16.4 nM, the GI50 (DMS 273 small cell lung) was 37.5 nM and the TGI (DMS 273 small cell lung) was 71.4 nM and 47.8 nM. For the same compound, the GI50 (HOP-18 NSCLC) was 37.5 nM, the TGI (HOP-18 NSCLC) was 75 nM and 436 nM and the GI50 (KM20L2 colon) was 37.5 nM. For the same compound, the TGI (KM20L2 colon) was 191 nM and 187 nM, the GI50 (M19-MEL melanoma) was 37.5 nM and the TGI (M19-MEL melanoma) was 187 nM and 111 nM. For the same compound, the GI50 (P388 leukemia) was 63800 nM, the TGI (P388 leukemia) was 245000 nM and the GI50 (SN12K1 renal) was 37.5 nM. For the same compound, the TGI (SN12K1 renal) was 119 nM and 393 nM, the GI50 (SNB-78 CNS) was 37.5 nM and the TGI (SNB-78 CNS) was 470 nM and 86.6 nM. The GI50 (XF 498 CNS) was 13.8 nM and the TGI (XF 498 CNS) was 26 nM and 55.3 nM.

`CCC1=C(C)C2=NC1=CC1=NC(=C(CC)/C1=C/O)C=C1N=C3C(=C1C)C(=O)C(C(=O)OC)C3=C1NC(=C2)C(C)C1CCC(=O)OC` (stereo not drawn) was tested, and the TGI (MDA-N) was > 100000 nM.

`COc1cccc2c1C(=O)c1c(O)c3c(c(O)c1C2=O)C[C@@](O)(C(C)=O)C[C@@H]3OC1CC(N)C(O)C(C)O1` (stereo partly drawn) was tested, and the GI50 (HOP-18 NSCLC) was > 5010 nM, the TGI (KM20L2 colon) was 2860 nM and 1450 nM and > 5010 nM and the TGI (LXFL 529 NSCLC) was 1480 nM and 1360 nM and > 5010 nM. The GI50 (M19-MEL melanoma) was > 5010 nM, the TGI (P388 leukemia) was 383 nM and the TGI (SN12K1 renal) was 215 nM. For the same compound, the GI50 (SNB-78 CNS) was 184 nM and the TGI (SNB-78 CNS) was 2490 nM and 3430 nM.

In the case of `CCP(=O)(CC)C(Cl)(Cl)C(=O)NC`, the TGI (MDA-N) is reported as > 100000 nM.

In the case of `O=c1c(-c2ccccc2)c[nH]c2cc([N+](=O)[O-])c(/C(Cl)=C/c3ccccc3)cc12`, the TGI (DMS 114 small cell lung) is reported as 19000 nM, the TGI (DMS 273 small cell lung) is reported as > 38700 nM and the TGI (HOP-18 NSCLC) is reported as 23100 nM. The TGI (KM20L2 colon) was > 54300 nM, the TGI (M19-MEL melanoma) was > 42500 nM and the TGI (P388 leukemia) was > 31600 nM. For the same compound, the TGI (SN12K1 renal) was > 41700 nM, the TGI (SNB-78 CNS) was > 27000 nM and the TGI (XF 498 CNS) was 23700 nM.

In the case of `N#Cc1ccc(Nc2nc3nc[nH]c3c(=O)[nH]2)cc1`, the TGI (MDA-N) is reported as > 100000 nM.

With `CCOC(=O)c1c(NC(=S)NCc2ccccc2)sc2c1CCN(C)C2` the TGI (MDA-N) was > 100000 nM.

Source: PubChem BioAssay (NCI)
